How the values were obtained:
[1] = tested on: CD4+ T-cells isolated from ova s/c BALB/c mice spleen; assay: Automated patch clamp of CD4+ T cells with 600 nM GABA; format: cell-based, mouse; conditions: increasing concentrations of compound, 3 seconds
Method: Direct interaction between compounds and CD4^+ T cells may be investigated by electrophysiology. Therefore, CD4^+ T cells may be isolated from the spleen of asthmatic mice and treated with compounds during an automated patch clamp experiment.
To determine the effect of compounds on lymphocytes, CD4^+ T cells from Ova S/C mice were isolated and their interaction with compounds was measured by automated patch clamp. Splenocytes from ova s/c BALB/c mice were prepared following BD Biosciences instructions for preparation of murine splenocytes and red blood cell lysed using BD Pharm Lyse™ lysing solution (BD Biosciences, San Jose, Calif.). Cells were maintained in suspension in RPMI 1640 medium with L-glutamine (Thermo Fisher Scientific Inc., Rockford, Ill.) supplemented with 10% (v/v) fetal bovine serum, 10 μM 2-mercaptoethanol and 1% penicillin/streptomycin in the presence or absence of 100 μg/mL ovalbumin. The cells were maintained in 5% CO2, 95% humidified air at 37° C. for 48 hours. The IonFlux plate layout consists of units of 12 wells: two wells contain intracellular solution (ICS containing […], 1 mM CaCl2, 1 mM MgCl2, 11 mM EGTA, 10 mM HEPES, pH 7.2 with CsOH), one contains cells diluted in extracellular solution (ECS containing 140 mM NaCl, 5 mM […] KCl, 2 mM CaCl2, 1 mM MgCl2, 5 mM D-glucose monohydrate, and 10 mM HEPES, pH 7.4 with NaOH), eight contain the compounds of interest diluted in ECS, and one well is for waste collection. Cells are captured from suspension by applying suction to microscopic channels in ensemble recording arrays. Once the array is fully occupied, the applied suction breaks the membranes of captured cells, which establishes whole cell voltage clamp. For compound applications, pressure is applied to the appropriate compound wells, which introduces the compound into the extracellular solution rapidly flowing over the cells. For recording GABAAR induced currents, cell arrays were voltage clamped at a hyperpolarizing holding potential of −50 mV. Prior to use on the automated patch clamp, cells were centrifuged at 380 g for 5 minutes and resuspended gently in ECS. This was repeated two more times before the cells were dispensed into the plate. GABA and muscimol were diluted to appropriate concentrations in ECS to appropriate concentrations before application and data recorded. […] The concentration-dependent current responses of CD4+ T-cells in the presence of 600 nM GABA and increasing concentration of compounds were carried out with an N of 16 and normalized to the current response of 600 nM GABA.

mucin = assay: Mucin production in airway epithelium, morphometric quantification; format: in vivo, Balb/c mice; conditions: 100 mg/kg twice for five days
Method: Pharmacodynamic effects of compounds in respect to mucus production were investigated after the AHR measurement by harvesting the lungs of treated and non-treated Ova S/C mice followed by formalin fixation and paraffin embedding. Sections were prepared from one lobe (including large and small airways) and processed for standard H&E (for general histopathology and inflammation) and PAS (for mucous cell; as cells/mm of basement membrane) staining. FIGS. 10A-10B show compound effects on mucin production: (A) Morphometric quantification of mucin volume density and (B) representative images of mucin (red) in the airway epithelium (green) with periodic acid fluorescent Schiff's stain. Balb/c mice were administered compounds at 100 mg/kg twice for five days. Data represent mean±SEM from 5-7 mice in each group. Scale bar represents 100 μm.

[2] = tested on: inflammatory cells, eosinophils, CD4+ T cells in BALF; assay: Inflammatory cell numbers in BALF by flow cytometry; format: in vivo, ova s/c BALB/c mice; conditions: 100 mg/kg twice daily for 5 days
Method: The change of the number of specific immune cells caused by compounds may be investigated in the bronchoalveolar lavage fluid (BALF) of Ova S/C mice. Therefore, a bronchoalveolar lavage may be carried out followed by the lysis of red blood cells. Incubation of cell-type specific antibodies with BALF may allow the quantification of leukocytes such as eosinophils and CD4^+ T-lymphocytes using flow cytometry.
Determination of anti-inflammatory properties of compounds were investigated in an allergen induced mouse model of asthma. At the day of analysis, bronchoalveolar lavage (BAL) was performed with 1 mL of Ca2+ and Mg2+ free PBS. Red blood cells (RBCs) were lysed using BD red blood cell lysis buffer (BD Pharmingen, San Jose, Calif.). BALF was split into four different tubes and non-specific binding to Fc receptors was blocked for 5 minutes using 6 μg/mL of 2.4G2 mouse BD Fc Block™ (BD Pharmingen, San Jose, Calif.). BALF cells were stained for 30 minutes at 4° C. in the dark with 100 μL BSA stain buffer (BD Pharmingen, San Jose, Calif.) containing the final concentrations of the following antibodies: anti-mouse CD45 APC (1:1000, 30-F11, Affymetrix eBiosciences, San Diego, Calif.), FITC rat anti-mouse CD4 (1:500, RM4-5, BD Pharmingen, San Jose, Calif.), PE Rat Anti-Mouse Siglec F (1:500, E50-2440, BD Pharmingen, San Jose, Calif.) and mouse CCR3 PE-conjugated antibody (1:40, 83101, R&D systems Inc, Minneapolis, Minn.). Flow cytometric studies were done using the BD FACS Calibur (BD Pharmingen, San Jose, Calif.) and data analyzed subsequently using Cell Quest pro software (BD Pharmingen, San Jose, Calif.). General gating for immune cells were followed. Total inflammatory cell count was obtained by running all samples on high (60 μL/min) for 180 seconds. The gated anti-mouse CD45 positive events in the fourth channel (FL4) were used to calculate the total inflammatory cell count as cells/mL. The frequencies of CCR3+/Siglec F were used for quantification of eosinophils and CD4+ for CD4+ T cell populations in their respective gates were multiplied by the total inflammatory cell count (cells/mL) to obtain the differential cell population. Statistical analysis: Data were analyzed using GraphPad Prism 4 (GraphPad Software, San Diego, Calif.) and expressed as mean±SEM. One-way analysis of variance (ANOVA) with Dunnet post hoc test or two-way ANOVA with Bonferroni post hoc test were performed for statistical difference for multiple groups. FIGS. 7A-7C show effects of compounds on inflammatory cells. Groups of 10 ova s/c BALB/c mice were administered compounds at 100 mg/kg twice daily for 5 days. BALF was harvested from each animal and used for (A) quantification of total inflammatory cells; (B) eosinophils; (C) CD4^+ T cells. Cells were stained with mouse CD45^+ APC antibody, and samples were analyzed with BD FACS Calibur on high flow rate (60 μl/minute) for 180 seconds. The gated positive events in the fourth channel (FL4) were used to calculate the total inflammatory cell count as cells/ml. Quantification of specific leukocyte population (B) eosinophils (C) CD4^+ T cell populations were stained with specific antibodies and detected by flow cytometry. Data represent mean±SEM from 10 mice in each group. *, **, and *** indicate p<0.05, p<0.01, and p<0.001 significance, respectively, compared to vehicle treated ova s/c BALB/c mice.

Compound	GABA-induced membrane current of CD4+ T-cells [1]	production of mucin (mucin)	numbers of CD4+ T cells [2]	numbers of eosinophils [2]	numbers of inflammatory cells in BALF [2]
C[C@H]1N=C(c2ccccc2F)c2cc(Br)ccc2-n2cnc(C(=O)O)c21 [GL-II-93, (R)-8-bromo-6-(2-fluorophenyl)-4-methyl-4H-benzo[f]imidazo[1,5-a][1,4]diazepine-3-carboxylic acid]	evoked a very pronounced GABA-induced transmembrane current	did not change the production of mucin	did reduce the numbers of eosinophils and CD4^+ T cells	did reduce the numbers of eosinophils	
CCOC(=O)c1ncn2c1[C@@H]1CCCN1C(=O)c1cc(O)ccc1-2 [RJ-02-50, ethyl (S)-7-hydroxy-9-oxo-11,12,13,13a-tetrahydro-9H-benzo[e]imidazo[5,1-c]pyrrolo[1,2-a][1,4]diazepine-1-carboxylate]	potentiated the GABA-induced membrane current more than SH-053-2F′F—R-CH3-Acid	did not change the production of mucin	did reduce the numbers of eosinophils and CD4^+ T cells	did reduce the numbers of eosinophils	
O=C1c2cc(O)ccc2-n2cnc(-c3cnco3)c2[C@@H]2CCCN12 [RJ-03-30, (S)-7-hydroxy-1-(oxazol-5-yl)-11,12,13,13a-tetrahydro-9H-benzo[e]imidazo[5,1-c]pyrrolo[1,2-a][1,4]diazepin-9-one]	evoked a very pronounced GABA-induced transmembrane current				did not modulate the numbers of inflammatory cells
C#Cc1ccc2c(c1)C(c1ccccc1F)=N[C@H](C)c1c(C(=O)O)ncn1-2 [SH-053-2′F-R-CH3-Acid, (R)-8-ethynyl-6-(2-fluorophenyl)-4-methyl-4H-benzo[f]imidazo[1,5-a][1,4]diazepine-3-carboxylic acid]	RJ-02-50 potentiated the GABA-induced membrane current more than SH-053-2F′F—R-CH3-Acid	did not change the production of mucin	but not CD4^+ T cells	reduced the numbers of eosinophils	

Source: patent US11447495B2, “Substituted benzo[f]imidazo[1,5-a][1,4]diazepines as GABA(a) receptor modulators” (priority 2016, dated 2022)
